Measured values reported in US11708348B2, “Protease inhibitors for treatment of coronavirus infections” (The Scripps Research Institute, priority 2021, dated 2023).

These molecules were tested on SARS-CoV-2 strain USA-WA1/2020 (assay: microbe, parasite or virus in culture). Conditions: Severe acute respiratory syndrome coronavirus 2, HeLa-ACE2, 24 h, HeLa-ACE2 cells, SARS-CoV-2 infection, 24 h; cells given as a bound; read-out: EC50, uM (Hela).
Type: cell-based
CC(=O)N1CCN(C(=O)C(=O)N[C@@H](CC(C)C)C(=O)N[C@@H](C[C@@H]2CCNC2=O)C(=O)COc2c(F)c(F)cc(F)c2F)CC1 [Compound 104, (S)-2-(2-(4-acetylpiperazin-1-yl)-2-oxoacetamido)-4-methyl-N-((S)-3-oxo-1-((S)-2-oxopyrrolidin-3-yl)-4-(2,3,5,6-tetrafluorophenoxy)butan-2-yl)pentanamide] showed an EC50 greater than 1 µM.

Same assay, conditions: Severe acute respiratory syndrome coronavirus 2, HeLa-ACE2, 24 h, HeLa-ACE2 cells, SARS-CoV-2 infection, 24 h; class symbols; read-out: EC50, uM (Hela)
With CC(C)C[C@H](NC(=O)C1COCCO1)C(=O)N[C@@H](C[C@@H]1CCNC1=O)C(=O)COC(F)(F)F (stereo partly drawn) [Compound 247, N-((S)-4-methyl-1-oxo-1-(((S)-3-oxo-1-((S)-2-oxopyrrolidin-3-yl)-4-(trifluoromethoxy)butan-2-yl)amino)pentan-2-yl)-1,4-dioxane-2-carboxamide] the EC50 was 0.05 to 0.2 µM. CC(C)(O)C(=O)N1C[C@H]2[C@@H]([C@H]1C(=O)N[C@@H](C[C@@H]1CCNC1=O)C(=O)COC(F)(F)F)C2(C)C [Compound 351, (1R,2S,5S)-3-(2-hydroxy-2-methylpropanoyl)-6,6-dimethyl-N-((S)-3-oxo-1-((S)-2-oxopyrrolidin-3-yl)-4-(trifluoromethoxy)butan-2-yl)-3-azabicyclo-[3.1.0]hexane-2-carboxamide] showed an EC50 of 0.05 to 0.2 µM. CC1(C)[C@@H]2[C@@H](C(=O)N[C@@H](C[C@@H]3CCNC3=O)C(=O)COC(F)(F)F)N(C(=O)[C@@H]3COCCO3)C[C@@H]21 [Compound 307, (1R,2S,5S)-3-((S)-1,4-dioxane-2-carbonyl)-6,6-dimethyl-N-((S)-3-oxo-1-((S)-2-oxopyrrolidin-3-yl)-4-(trifluoromethoxy)butan-2-yl)-3-azabicyclo[3.1.0]hexane-2-carboxamide] gave an EC50 of 0.2 to 0.5 µM. For COCc1ccccc1NC(=O)C(=O)N[C@@H](CC(C)C)C(=O)N[C@@H](C[C@@H]1CCNC1=O)C(=O)COC(F)(F)F [Compound 177, N1-(2-(methoxymethyl)phenyl)-N2-((S)-4-methyl-1-oxo-1-(((S)-3-oxo-1-((S)-2-oxopyrrolidin-3-yl)-4-(trifluoromethoxy)butan-2-yl)amino)pentan-2-yl)oxalamide], the EC50 was less than 0.05 µM. For CC(C)C[C@H](NC(=O)OCc1ccc(F)cc1)C(=O)N[C@@H](C[C@@H]1CCNC1=O)C(=O)COc1c(F)c(F)cc(F)c1F [Compound 23, 4-fluorobenzyl ((S)-4-methyl-1-oxo-1-(((S)-3-oxo-1-((S)-2-oxopyrrolidin-3-yl)-4-(2,3,5,6-tetra-fluorophenoxy)butan-2-yl)amino)pentan-2-yl)carbamate], the EC50 was 0.2 to 0.5 µM. Work on CC1(C)[C@@H]2[C@@H](C(=O)N[C@@H](C[C@@H]3CCNC3=O)C(=O)COC(F)(F)F)N(C(=O)C(O)c3ccc(F)c(F)c3)C[C@@H]21 (stereo partly drawn) [Compound 401, (1R,2S,5S)-3-(2-(3,4-difluorophenyl)-2-hydroxyacetyl)-6,6-dimethyl-N-((S)-3-oxo-1-((S)-2-oxopyrrolidin-3-yl)-4-(trifluoromethoxy)butan-2-yl)-3-azabicyclo[3.1.0]hexane-2-carboxamide] yielded an EC50 of less than 0.05 µM. COC(CC(C)C)C(=O)N1CC2(CC2)C[C@H]1C(=O)N[C@@H](C[C@@H]1CCNC1=O)C(=O)COC(F)(F)F (stereo partly drawn) [Compound 338, (6S)-5-(2-methoxy-4-methylpentanoyl)-N-((S)-3-oxo-1-((S)-2-oxopyrrolidin-3-yl)-4-(trifluoromethoxy)butan-2-yl)-5-azaspiro[2.4]heptane-6-carboxamide] showed an EC50 of less than 0.05 µM. With CC(C)C[C@H](NC(=O)C(=O)NC1CC(F)(F)C1)C(=O)N[C@@H](C[C@@H]1CCNC1=O)C(=O)COC(F)(F)F [Compound 205, Nl-(3,3-difluorocyclobutyl)-N2-((S)-4-methyl-1-oxo-1-(((S)-3-oxo-1-((S)-2-oxopyrrolidin-3-yl)-4-(trifluoromethoxy)butan-2-yl)amino)pentan-2-yl)oxalamide] the EC50 was less than 0.05 µM. With CC(C)(C)CC(O)C(=O)N1C[C@H]2[C@@H]([C@H]1C(=O)N[C@@H](C[C@@H]1CCNC1=O)C(=O)COC(F)(F)F)C2(C)C (stereo partly drawn) [Compound 347, (1R,2S,5S)-3-(2-hydroxy-4,4-dimethylpentanoyl)-6,6-dimethyl-N-((S)-3-oxo-1-((S)-2-oxopyrrolidin-3-yl)-4-(trifluoromethoxy)butan-2-yl)-3-azabicyclo-[3.1.0]hexane-2-carboxamide] the EC50 was less than 0.05 µM. CC(C)C[C@H](NC(=O)C(=O)Nc1c(OC(C)C)cccc1OC(C)C)C(=O)N[C@@H](C[C@@H]1CCNC1=O)C(=O)COC(F)(F)F [Compound 170, Nl-(2,6-diisopropoxyphenyl)-N2-((S)-4-methyl-1-oxo-1-(((S)-3-oxo-1-((S)-2-oxopyrrolidin-3-yl)-4-(trifluoromethoxy)butan-2-yl)amino)pentan-2-yl)oxalamide] showed an EC50 of less than 0.05 µM.

Same assay, conditions: Severe acute respiratory syndrome coronavirus 2, HeLa-ACE2, 24 h, HeLa-ACE2 cells, SARS-CoV-2 infection, 24 h; read-out: EC50, uM (Hela)
For O=C(NC12CC(F)(C1)C2)C(=O)N1C[C@@H]2CCC[C@@H]2[C@H]1C(=O)N[C@@H](C[C@@H]1CCNC1=O)C(=O)COC(F)(F)F [Compound 525, (1S,3aR,6aS)-2-(2-((3-fluorobicyclo[1.1.1]-pentan-1-yl)amino)-2-oxoacetyl)-N-((S)-3-oxo-1-((S)-2-oxopyrrolidin-3-yl)-4-(trifluoromethoxy)butan-2-yl)octahydrocyclo-penta[c]pyrrole-1-carboxamide], the EC50 was less than 0.05 µM. CC1(C)C[C@@H](C(=O)N[C@@H](C[C@@H]2CCNC2=O)C(=O)COC(F)(F)F)N(C(=O)C(=O)NC2CC(F)(F)C2)C1 [Compound 543, (S)-1-(2-((3,3-difluorocyclo-butyl)amino)-2-oxoacetyl)-4,4-dimethyl-N-((S)-3-oxo-1-((S)-2-oxopyrrolidin-3-yl)-4-(trifluoromethoxy)butan-2-yl)pyrrolidine-2-carboxamide] was tested, and the EC50 was 0.5 to 1 µM. CC[C@@H](OC(F)(F)F)C(=O)N1CC2(CC2)C[C@H]1C(=O)N[C@@H](C[C@@H]1CCNC1=O)C(=O)COC(F)(F)F [Compound 716, (S)-N-((S)-3-oxo-1-((S)-2-oxopyrrolidin-3-yl)-4-(trifluoromethoxy)butan-2-yl)-5-((R)-2-(trifluoromethoxy)butanoyl)-5-azaspiro[2.4]heptane-6-carboxamide] was tested, and the EC50 was 0.05 to 0.2 µM. C=CC[C@@H](O)C(=O)N1CC2(CC2)C[C@H]1C(=O)N[C@@H](C[C@@H]1CCNC1=O)C(=O)COC(F)(F)F [Compound 662, (S)-5-((R)-2-hydroxypent-4-enoyl)-N-((S)-3-oxo-1-((S)-2-oxopyrrolidin-3-yl)-4-(trifluoromethoxy)butan-2-yl)-5-azaspiro[2.4]heptane-6-carboxamide] gave an EC50 of 0.05 to 0.2 µM. CC(C)(C)NC(=O)C(=O)N1CC2(CC1C(=O)N[C@@H](C[C@@H]1CCNC1=O)C(=O)COC(F)(F)F)CC(F)(F)C2 (stereo partly drawn) [Compound 508, 6-(2-(tert-butylamino)-2-oxoacetyl)-2,2-difluoro-N-((S)-3-oxo-1-((S)-2-oxopyrrolidin-3-yl)-4-(trifluoromethoxy)butan-2-yl)-6-azaspiro[3.4]octane-7-carboxamide] gave an EC50 of 0.05 to 0.2 µM. O=C1NCC[C@H]1C[C@H](NC(=O)[C@@H]1[C@H]2CCC[C@H]2CN1C(=O)c1noc2cc(F)ccc12)C(=O)COC(F)(F)F [Compound 611, (1S,3aR,6aS)-2-(6-fluorobenzo[d]isoxazole-3-carbonyl)-N-((S)-3-oxo-1-((S)-2-oxopyrrolidin-3-yl)-4-(trifluoromethoxy)butan-2-yl)octahydrocyclopenta[c]pyrrole-1-carboxamide] was tested, and the EC50 was less than 0.05 µM. Work on COc1cccc([C@@H](O)C(=O)N2C[C@H]3[C@@H]([C@H]2C(=O)N[C@@H](C[C@@H]2CCNC2=O)C(=O)COC(F)(F)F)C3(C)C)c1F [Compound 741, (1R,2S,5S)-3-((R)-2-(2-fluoro-3-methoxyphenyl)-2-hydroxyacetyl)-6,6-dimethyl-N-((S)-3-oxo-1-((S)-2-oxopyrrolidin-3-yl)-4-(trifluoromethoxy)butan-2-yl)-3-azabicyclo[3.1.0]hexane-2-carboxamide] yielded an EC50 of less than 0.05 µM. Work on CC1(C)[C@@H]2[C@@H](C(=O)N[C@@H](C[C@@H]3CCNC3=O)C(=O)COC(F)(F)F)N(C(=O)[C@H](O)c3ccccc3)C[C@@H]21 [Compound 413, (1R,2S,5S)-3-((R)-2-hydroxy-2-phenylacetyl)-6,6-dimethyl-N-((S)-3-oxo-1-((S)-2-oxopyrrolidin-3-yl)-4-(trifluoromethoxy)butan-2-yl)-3-azabicyclo[3.1.0]-hexane-2-carboxamide] yielded an EC50 of less than 0.05 µM. CC(C)(C)C[C@H](NC(=O)C(=O)Nc1cccc(C(F)(F)F)n1)C(=O)N[C@@H](C[C@@H]1CCCNC1=O)C(=O)CO [Compound 742, N1-((S)-1-(((S)-4-hydroxy-3-oxo-1-((S)-2-oxopiperidin-3-yl)butan-2-yl)amino)-4,4-dimethyl-1-oxopentan-2-yl)-N2-(6-(trifluoromethyl)pyridin-2-yl)oxalamide] showed an EC50 of 0.2 to 0.5 µM. CC(C)(C)NC(=O)C(=O)N1CC2(COC2)C[C@@H]1C(=O)N[C@@H](C[C@@H]1CCNC1=O)C(=O)COC(F)(F)F [Compound 514, (R)-6-(2-(tert-butylamino)-2-oxoacetyl)-N-((S)-3-oxo-1-((S)-2-oxopyrrolidin-3-yl)-4-(trifluoromethoxy)butan-2-yl)-2-oxa-6-azaspiro[3.4]octane-7-carboxamide] showed an EC50 of 0.5 to 1 µM. In the case of CC(C)(C)NC(=O)C(=O)N1[C@H](C(=O)N[C@@H](C[C@@H]2CCNC2=O)C(=O)COC(F)(F)F)C[C@@H]2CCCC[C@@H]21 [Compound 498, (2S,3aS,7aS)-1-(2-(tert-butylamino)-2-oxoacetyl)-N-((S)-3-oxo-1-((S)-2-oxopyrrolidin-3-yl)-4-(trifluoromethoxy)butan-2-yl)octahydro-1H-indole-2-carboxamide], the EC50 is reported as 0.05 to 0.2 µM.

Same assay, conditions: Severe acute respiratory syndrome coronavirus 2, HeLa-ACE2, 24 h; read-out: EC50, uM (Hela)
Work on CC(C)C[C@H](NC(=O)C(=O)Nc1ccccc1F)C(=O)N[C@@H](C[C@@H]1CCNC1=O)C(=O)COP(C)(=O)c1ccccc1 (stereo partly drawn) [Compound 651, (S)-3-((S)-2-(2-((2-fluorophenyl)amino)-2-oxoacetamido)-4-methylpentanamido)-2-oxo-4-((S)-2-oxopyrrolidin-3-yl)butyl methyl(phenyl)phosphinate] yielded an EC50 of 0.05 to 0.2 µM.
